Data: patent US20250325566A1, “C[…]-9-TETRAHYDROCANNABINOL AND TERPENES” (Vertanical GmbH, priority 2022, published 2025)

System: different cancer cell lines (MCF-7, HCT-116, CaCO2)
Assay: MTT cytotoxicity assay, single substances vs combination, different cancer cell lines
Assay type: cell-based
Conditions: THC + alpha-bisabolol + guaiol vs single substance, 48 h
Description: The following cell lines were used for the experiment: CaCO2 (Pharmacelsus), HCT-116 (ATCC, Cat #CCL-247), and MCF-7 (ECACC, Cat #86012803). All cell lines were maintained at 37° C., 5% CO2 and 95% humidity. The medium was replaced three times per week and the monolayer was sub-cultured in a ratio of 1:5 when the culture reaches a confluence of 80%. The specific cultivation medium for each cell line was as follows: CaCO2 cell line was cultured in DMEM (PAN-Biotech, Cat #P04-03500) supplemented with 10% FBS Good (PAN-Biotech, Cat #P40-37500) and 1% NEAA (PAN-Biotech, Cat #P08-32100), HCT-116 cell line was cultured in McCoy's A5 medium (PAN-Biotech, Cat #P04-05500) supplemented with 10% FBS Good, and MCF-7 cell line was cultured in RPMI 1640 (PAN-Biotech, Cat #P04-16500) supplemented with 10% FBS and 2 mM GlutaMAX (Gibco, Cat #35050). All cell culture media were routinely supplemented with 1% Penicillin/Streptomycin (PAN-Biotech, Cat #P06-07100).
For the cytotoxicity assay, cells were seeded into 96-well flat bottom microtiter plates at a density of 10,000 cells/well and allowed to attach to the plate for 24 hours before the start of the experiment. […]
Quantification of viable cells was performed by using commercial MTT assay kit (Cell Proliferation Kit I (MTT), Sigma, Cat #11465007001). […] The formazan crystals formed are solubilized and the resulting coloured solution is quantified.
Cells were prepared as described in Example 1.1. […] Conversion of MTT to formazan was recorded by measuring the absorbance at 570 nm with reference wavelength 650 nm by using a spectrophotometer (Spectramax Plus, Molecular Devices). […]

## CCCCCc1cc(O)c2c(c1)OC(C)(C)[C@@H]1CCC(C)=C[C@@H]21 [THC, delta-9-tetrahydrocannabinol]
  IC50 values in combinatory treatment compared to single treatment: remain unchanged

## CC(C)=CCC[C@](C)(O)[C@@H]1CC=C(C)CC1 [alpha-bisabolol]
  IC50 values in combinatory treatment compared to single treatment: remarkably reduced

## C[C@H]1CC[C@@H](C(C)(C)O)CC2=C1CC[C@@H]2C [guaiol]
  IC50 values in combinatory treatment compared to single treatment: remarkably reduced
